Assay results taken from ChEMBL document CHEMBL1201862, “PubChem BioAssay data set” (2004).
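Following 48 hours of exposure in 96-well plates, responses at five concentrations were used to interpolate endpoints linearly. Abbreviation: GI50, concentration required for 50% inhibition of growth.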 Calls of active or inactive are those of the source. Cut-off read from the data, not from the text of the source: active = GI50 up to about 1.1 µM and inactive = higher.

What was measured:
Test in all cases: NCI tumour cell line growth inhibition, 48 h
RPMI-8226 = tested on: RPMI-8226
BT-549 = tested on: BT-549
Hs-578T = tested on: Hs-578T
NCI-H522 = tested on: NCI-H522
MDA-MB-435 = tested on: MDA-MB-435
UACC-257 = tested on: UACC-257
MOLT-4 = tested on: MOLT-4
ACHN = tested on: ACHN
MCF7 = tested on: MCF7
LOX IMVI = tested on: LOX IMVI
M14 = tested on: M14
HOP-62 = tested on: HOP-62
HOP-92 = tested on: HOP-92
DU-145 = tested on: DU-145
HT-29 = tested on: HT-29
U-251 = tested on: U-251
786-0 = tested on: 786-0
SF-539 = tested on: SF-539
NCI-H23 = tested on: NCI-H23
SK-OV-3 = tested on: SK-OV-3

| Compound | GI50 (RPMI-8226) | GI50 (BT-549) | GI50 (Hs-578T) | GI50 (NCI-H522) | GI50 (MDA-MB-435) | GI50 (UACC-257) | GI50 (MOLT-4) | GI50 (ACHN) | GI50 (MCF7) | GI50 (LOX IMVI) | GI50 (M14) | GI50 (HOP-62) | GI50 (HOP-92) | GI50 (DU-145) | GI50 (HT-29) | GI50 (U-251) | GI50 (786-0) | GI50 (SF-539) | GI50 (NCI-H23) | GI50 (SK-OV-3) |
| --- | --- | --- | --- | --- | --- | --- | --- | --- | --- | --- | --- | --- | --- | --- | --- | --- | --- | --- | --- | --- |
| NCCCN1CCN(c2ccccc2)CC1 | > 100 µM (inactive) | > 100 µM (inactive) | > 100 µM (inactive) | 73.6 µM (inactive) | 51.2 µM (inactive) | > 100 µM (inactive) | 79.3 µM (inactive) | > 100 µM (inactive) | > 100 µM (inactive) | > 100 µM (inactive) | 35.3 µM (inactive) | 10.9 µM (inactive) | 86.3 µM (inactive) | > 100 µM (inactive) | 95.1 µM (inactive) | > 100 µM (inactive) | > 100 µM (inactive) | – | – | – |
| O=C1CC(c2ccc(O)cc2)C2(O1)C(=O)OC(C(O)CO)C2O (stereo unspecified) | > 100 µM (inactive) | > 100 µM (inactive) | > 100 µM (inactive) | – | > 100 µM (inactive) | > 100 µM (inactive) | > 100 µM (inactive) | > 100 µM (inactive) | > 100 µM (inactive) | > 100 µM (inactive) | > 100 µM (inactive) | > 100 µM (inactive) | – | > 100 µM (inactive) | > 100 µM (inactive) | > 100 µM (inactive) | > 100 µM (inactive) | > 100 µM (inactive) | > 100 µM (inactive) | > 100 µM (inactive) |
| O=c1oc2ccc(Cl)cc2c2ccccc12 | > 100 µM (inactive) | 13.4 µM (inactive) | 18.3 µM (inactive) | 48.5 µM (inactive) | > 100 µM (inactive) | > 100 µM (inactive) | > 100 µM (inactive) | > 100 µM (inactive) | 53.2 µM (inactive) | > 100 µM (inactive) | > 100 µM (inactive) | 18.8 µM (inactive) | 23.2 µM (inactive) | > 100 µM (inactive) | > 100 µM (inactive) | 15.1 µM (inactive) | 40.1 µM (inactive) | > 100 µM (inactive) | 23.8 µM (inactive) | – |
| CCOC(=O)/C(C(=O)Nc1ccc(F)cc1)=C(/N)N1CCOCC1 | > 100 µM (inactive) | > 100 µM (inactive) | > 100 µM (inactive) | > 100 µM (inactive) | > 100 µM (inactive) | > 100 µM (inactive) | > 100 µM (inactive) | > 100 µM (inactive) | > 100 µM (inactive) | > 100 µM (inactive) | > 100 µM (inactive) | > 100 µM (inactive) | – | > 100 µM (inactive) | > 100 µM (inactive) | > 100 µM (inactive) | > 100 µM (inactive) | – | > 100 µM (inactive) | > 100 µM (inactive) |
| N[C@H](CCC(=O)NCP(=O)(O)O)C(=O)O | > 100 µM (inactive) | > 100 µM (inactive) | > 100 µM (inactive) | > 100 µM (inactive) | > 100 µM (inactive) | > 100 µM (inactive) | > 100 µM (inactive) | > 100 µM (inactive) | > 100 µM (inactive) | – | – | > 100 µM (inactive) | – | – | > 100 µM (inactive) | > 100 µM (inactive) | > 100 µM (inactive) | > 100 µM (inactive) | > 100 µM (inactive) | – |
| COC(=O)[C@]1(C)CCC[C@@]2(C)C1CC[C@@]13C=C(C(C)C)[C@@H](CC1=O)CC23 (stereo partly specified) | 18.5 µM (inactive) | 23 µM (inactive) | 13.4 µM (inactive) | 18.6 µM (inactive) | 35.6 µM (inactive) | 21.5 µM (inactive) | 15 µM (inactive) | 18.6 µM (inactive) | 26.1 µM (inactive) | – | 38.5 µM (inactive) | 30.6 µM (inactive) | – | 38.4 µM (inactive) | 18.2 µM (inactive) | 18.7 µM (inactive) | 25.9 µM (inactive) | 20.9 µM (inactive) | 34 µM (inactive) | 46.3 µM (inactive) |
| FC(F)(F)c1ccc2nc(Sc3ccc4ccccc4c3)cnc2c1 | – | > 100 µM (inactive) | > 100 µM (inactive) | 37.5 µM (inactive) | 55.2 µM (inactive) | 43.8 µM (inactive) | 24.5 µM (inactive) | > 100 µM (inactive) | 45 µM (inactive) | 44.1 µM (inactive) | 87.9 µM (inactive) | 74.8 µM (inactive) | > 100 µM (inactive) | > 100 µM (inactive) | 87.3 µM (inactive) | 25.2 µM (inactive) | 40.5 µM (inactive) | 36.3 µM (inactive) | 41.9 µM (inactive) | > 100 µM (inactive) |
| c1ccc(C(CCN2CC3CCC(CC3)C2)c2ccccc2)cc1 | 16.8 µM (inactive) | 42.2 µM (inactive) | 24 µM (inactive) | 16.6 µM (inactive) | 25.1 µM (inactive) | 16.2 µM (inactive) | 18.2 µM (inactive) | 22.8 µM (inactive) | 15.6 µM (inactive) | 16.9 µM (inactive) | 14.3 µM (inactive) | 27.5 µM (inactive) | 22.9 µM (inactive) | 38.4 µM (inactive) | 13.9 µM (inactive) | 18.2 µM (inactive) | 17.3 µM (inactive) | 16 µM (inactive) | 18 µM (inactive) | – |
| CN(C)CCNC(=O)c1cccc(C(=O)Nc2ccccc2)c1[N+](=O)[O-] | – | 34 µM (inactive) | > 100 µM (inactive) | > 100 µM (inactive) | > 100 µM (inactive) | > 100 µM (inactive) | > 100 µM (inactive) | > 100 µM (inactive) | > 100 µM (inactive) | – | > 100 µM (inactive) | > 100 µM (inactive) | – | > 100 µM (inactive) | 71.8 µM (inactive) | > 100 µM (inactive) | > 100 µM (inactive) | > 100 µM (inactive) | > 100 µM (inactive) | > 100 µM (inactive) |
| CC[n+]1[b-](C(C)(C)C)n(/N=C/C(C)(C)C)[b-](C(C)(C)C)[n+]1CC | – | > 100 µM (inactive) | > 100 µM (inactive) | > 100 µM (inactive) | > 100 µM (inactive) | > 100 µM (inactive) | > 100 µM (inactive) | > 100 µM (inactive) | > 100 µM (inactive) | > 100 µM (inactive) | > 100 µM (inactive) | > 100 µM (inactive) | – | – | > 100 µM (inactive) | > 100 µM (inactive) | > 100 µM (inactive) | > 100 µM (inactive) | > 100 µM (inactive) | – |
| COc1cc(C2SCC(=O)N2NC(=O)c2ccc(NC(C)=O)cc2)cc(OC)c1OC (stereo unspecified) | > 100 µM (inactive) | > 100 µM (inactive) | > 100 µM (inactive) | – | > 100 µM (inactive) | > 100 µM (inactive) | > 100 µM (inactive) | > 100 µM (inactive) | > 100 µM (inactive) | – | > 100 µM (inactive) | > 100 µM (inactive) | > 100 µM (inactive) | > 100 µM (inactive) | > 100 µM (inactive) | > 100 µM (inactive) | > 100 µM (inactive) | > 100 µM (inactive) | > 100 µM (inactive) | > 100 µM (inactive) |
| C/C(=N\NC(=S)N1CCCCCCCCCCCC1)c1ccccn1 | – | 0.0991 µM (active) | 0.24 µM (active) | 0.0855 µM (active) | 0.15 µM (active) | 0.0689 µM (active) | 0.0318 µM (active) | 0.215 µM (active) | 0.0865 µM (active) | 0.135 µM (active) | 0.214 µM (active) | 0.132 µM (active) | 0.111 µM (active) | 0.533 µM (active) | 0.0356 µM (active) | 0.0673 µM (active) | 0.173 µM (active) | 0.199 µM (active) | 0.379 µM (active) | – |
| CCOC(=O)c1sc2nc(SC)nc3c2c1NCN3c1ccccc1Cl | > 100 µM (inactive) | 42.7 µM (inactive) | 35.4 µM (inactive) | 26.5 µM (inactive) | > 100 µM (inactive) | 48.8 µM (inactive) | > 100 µM (inactive) | 55.1 µM (inactive) | – | 35.6 µM (inactive) | > 100 µM (inactive) | 40.9 µM (inactive) | 25.3 µM (inactive) | 75.3 µM (inactive) | 72.1 µM (inactive) | 43.8 µM (inactive) | 24.3 µM (inactive) | – | 42.2 µM (inactive) | 56.6 µM (inactive) |
| CC(C)(C)OC(=O)NC(Cc1ccc(O)cn1)C(=O)O (stereo unspecified) | > 100 µM (inactive) | > 100 µM (inactive) | > 100 µM (inactive) | > 100 µM (inactive) | > 100 µM (inactive) | > 100 µM (inactive) | > 100 µM (inactive) | > 100 µM (inactive) | > 100 µM (inactive) | > 100 µM (inactive) | – | > 100 µM (inactive) | > 100 µM (inactive) | > 100 µM (inactive) | > 100 µM (inactive) | > 100 µM (inactive) | > 100 µM (inactive) | > 100 µM (inactive) | > 100 µM (inactive) | – |
| c1ccc2c(-c3csc(-c4c[nH]c5ccccc45)n3)c[nH]c2c1 | – | > 100 µM (inactive) | 61.1 µM (inactive) | – | 35.8 µM (inactive) | > 100 µM (inactive) | 4.86 µM (inactive) | > 100 µM (inactive) | > 52.1 µM (inactive) | 21.8 µM (inactive) | > 100 µM (inactive) | 56.4 µM (inactive) | > 100 µM (inactive) | > 76.7 µM (inactive) | 39.4 µM (inactive) | > 90.6 µM (inactive) | > 65 µM (inactive) | > 100 µM (inactive) | > 100 µM (inactive) | > 44.8 µM (inactive) |
